According to patent publication US8846873B2, “Antibodies directed to GPNMB and uses thereof” (Celldex Therapeutics, Inc., priority 2004, dated 2014):

What was measured:
[1] = Pharmacokinetics of CR011-vcMMAE after intravenous administration (sandwich ELISA of serum); assay type: in vivo, athymic mice; settings: for A (pre-exponential constant for alpha phase) / AUC (total area under the curve from 0 to infinity) / Alpha (exponential rate constant for alpha phase) / Alpha-Half Life / B (pre-exponential constant for beta phase) / Beta (exponential rate constant for beta phase) / Beta- Half Life / Cl (total or systemic clearance) / Cmax / Volume (volume of central compartment) / Vss (steady-state volume of distribution): athymic mice, serum
Text: Abbreviations: A: Pre-exponential constant for alpha phase; Alpha: Exponential rate constant for alpha phase; AUC Total area under the curve from 0 to infinity; B: Pre-exponential constant for beta phase; Beta: Exponential rate constant for beta phase; Cl: Total or systemic clearance; Cmax: Maximum observed concentration; MRT: Mean residence time; Volume: Volume of central compartment; Vss: Steady-state volume of distribution.

U-118-MG = assay: Clonogenic assay, CR011-vcMMAE in vitro growth inhibition; assay type: cell-based, human
Method: (§1) Cells were plated in 96-well plates and allowed to recover overnight. […] The cells were then transferred into 6-well plates and allowed to form colonies. Colonies were stained with Giemsa stain (Sigma) and counted. The surviving cell fractions were calculated based upon the ratio of the treated sample and the untreated control. The results were expressed as a percentage of control using GraphPad Prism Version 4 software.

SNB-78 = assay: as above; assay type: cell-based, human
Method: as §1

XF-498 = assay: as above; assay type: cell-based, human
Method: as §1

SF-539 = assay: as above; assay type: cell-based, human
Method: as §1

SK-Mel-2 cells = assay: Apoptosis analysis (Annexin V-FITC / propidium iodide); assay type: cell-based, human; settings: for % AnnV+/PI+ UR / % AnnV+/PI− LR / % AnnV−/PI+ UL: SK-Mel-2, 48 hour
Method: (§2) Briefly, cells were pulsed at the indicated times with 30 μM of bromodeoxyuridine (BrdU, Sigma) for 30 min, harvested, fixed and permeabilized in methanol. Nascent DNA synthesis was detected by anti-bromodeoxyuridine-FITC (BD Biosciences, San Jose, Calif.) staining. Total DNA content was detected using propidium iodide (PI, Sigma). For apoptosis analysis, cells were treated as above and labeled with Annexin V-FITC followed by propidium iodide exclusion using the Annexin V-FITC Apoptosis Detection kit I (BD PharMingen, San Diego, Calif.) according to the manufacturer's protocols. Flow cytometry (as described in the previous Example) was used to assay both cell cycle and apoptosis studies.
(§3) To investigate this possibility, analysis of apoptosis using Annexin-V surface binding and loss of propidium iodide (PI) exclusion was performed.

TK-10 cells = assay: as above; assay type: cell-based, human; settings: TK-10, 48 hour
Method: as §2, §3

UACC-257 = assay: Clonogenic assay with 1.15.1-AE; assay type: cell-based, human
Method: (§4) Melanoma cell lines were plated onto flat bottom 96-well tissue culture plates (Becton Dickinson, Franklin Lakes, N.J., USA). On day 2 or when cells reach ˜25% confluency, various concentrations of unconjugated and Auristatin E-conjugated 1.15.1 were added to cells. MAb 2.6.2-AE was also used as a conjugated isotype control in this study. On day 5, the cells were trypsinized, transferred to 6-well tissue culture plates and incubated at 37° C. Plates were examined daily. On days 8-10, all plates were Giemsa stained and colonies on the plates were counted.

G361 = assay: Clonogenic assay with 1.15.1-AE; assay type: cell-based, human
Method: as §4

RPMI-7951 = assay: Clonogenic assay with 1.15.1-AE; assay type: cell-based, human
Method: as §4

SK-Mel 2 = assay: Clonogenic assay with 1.15.1-AE; assay type: cell-based, human
Method: as §4

DEL (ALCL) = assay: Clonogenic assay with 1.15.1-AE (methylcellulose); assay type: cell-based
Method: (§5) Lymphoma or leukemia cell lines were mixed with methylcellulose base media (R&D Systems, USA) and in various concentrations of unconjugated and Auristatin E-conjugated 1.15.1 antibody before plating onto 6-well tissue culture plates (Becton Dickinson, Franklin Lakes, N.J., USA). […] Plates were incubated at 37° C. and examined daily. On days 14-18, colonies on the plates were counted.

[2] = test system: THP-1 (acute monocytic leukemia); assay: Clonogenic assay with 1.15.1-AE (methylcellulose); assay type: cell-based
Method: as §5

[3] = test system: KG-1 (acute myelogenous leukemia); assay: Clonogenic assay with 1.15.1-AE (methylcellulose); assay type: cell-based
Method: as §5

[4] = test system: U937 (histiocytic lymphoma, monocytic); assay: Clonogenic assay with 1.15.1-AE (methylcellulose); assay type: cell-based
Method: as §5

[5] = test system: CCRF-CEM (acute T cell lymphoblastic leukemia); assay: Clonogenic assay with 1.15.1-AE (methylcellulose); assay type: cell-based
Method: as §5

[6] = test system: Jurkat (acute T-cell leukemia); assay: Clonogenic assay with 1.15.1-AE (methylcellulose); assay type: cell-based
Method: as §5

[7] = test system: PL-21 (acute myeloid leukemia); assay: Clonogenic assay with 1.15.1-AE (methylcellulose); assay type: cell-based
Method: as §5

[8] = test system: SR (anaplastic large T cell lymphoma, ALCL); assay: Clonogenic assay with 1.15.1-AE (methylcellulose); assay type: cell-based
Method: as §5

SUP-M2 (ALCL) = assay: Clonogenic assay with 1.15.1-AE (methylcellulose); assay type: cell-based
Method: as §5

[9] = test system: MOLT-4 (acute T cell lymphoblastic leukemia); assay: Clonogenic assay with 1.15.1-AE (methylcellulose); assay type: cell-based
Method: as §5

SU-DHL-1 (ALCL) = assay: Clonogenic assay with 1.15.1-AE (methylcellulose); assay type: cell-based
Method: as §5

Karpas 299 (ALCL) = assay: Clonogenic assay with 1.15.1-AE (methylcellulose); assay type: cell-based
Method: as §5

CR011-vcMMAE: anti-GPNMB antibody 1.15.1 coupled to monomethylauristatin E via protease-sensitive valine-citrulline linker
A (pre-exponential constant for alpha phase) ([1]; 1 mg/kg intravenous): 8.97 µg/mL | AUC (total area under the curve from 0 to infinity) ([1]; 1 mg/kg intravenous): 3712 µg·h/mL | Alpha (exponential rate constant for alpha phase) ([1]; 1 mg/kg intravenous): 0.179 h⁻¹ | Alpha-Half Life ([1]; 1 mg/kg intravenous): 0.162 days | B (pre-exponential constant for beta phase) ([1]; 1 mg/kg intravenous): 9.82 µg/mL | Beta (exponential rate constant for beta phase) ([1]; 1 mg/kg intravenous): 0.00269 h⁻¹ | Beta- Half Life ([1]; 1 mg/kg intravenous): 10.8 days | Cl (total or systemic clearance) ([1]; 1 mg/kg intravenous): 6.46 mL/day/kg | Cmax ([1]; 1 mg/kg intravenous): 18.8 µg/mL | Volume (volume of central compartment) ([1]; 1 mg/kg intravenous): 0.0532 L/kg | Vss (steady-state volume of distribution) ([1]; 1 mg/kg intravenous): 0.099 L/kg | A (pre-exponential constant for alpha phase) ([1]; 10 mg/kg intravenous): 74.6 µg/mL | AUC (total area under the curve from 0 to infinity) ([1]; 10 mg/kg intravenous): 41210 µg·h/mL | Alpha (exponential rate constant for alpha phase) ([1]; 10 mg/kg intravenous): 0.0812 h⁻¹ | Alpha-Half Life ([1]; 10 mg/kg intravenous): 0.3555 days | B (pre-exponential constant for beta phase) ([1]; 10 mg/kg intravenous): 113 µg/mL | Beta (exponential rate constant for beta phase) ([1]; 10 mg/kg intravenous): 0.00281 h⁻¹ | Beta- Half Life ([1]; 10 mg/kg intravenous): 10.3 days | Cl (total or systemic clearance) ([1]; 10 mg/kg intravenous): 5.83 mL/day/kg | Cmax ([1]; 10 mg/kg intravenous): 188 µg/mL | Volume (volume of central compartment) ([1]; 10 mg/kg intravenous): 0.0532 L/kg | Vss (steady-state volume of distribution) ([1]; 10 mg/kg intravenous): 0.0845 L/kg | T1/2β ([1]; 1 or 10 mg/kg intravenously): 10.3 days | contribution of the initial phase (α) to the total AUC ([1]; 1 or 10 mg/kg intravenously): < 2% | volume of distribution at steady state (Vss) ([1]; intravenous): very low | IC50 (U-118-MG): ~1.25 µg/mL | IC50 (SNB-78): ~0.45 µg/mL | IC50 (XF-498): approximately 215 ng/mL | IC50 (SF-539): ~1.05 µg/mL | increase in mono-stained (Annexin-V+/PI−) cells (SK-Mel-2 cells; 1000 ng/mL, 48 hr): 11% | % AnnV+/PI+ UR (SK-Mel-2 cells; 100 ng/mL): 0.40% | % AnnV+/PI− LR (SK-Mel-2 cells; 100 ng/mL): 9.37% | % AnnV−/PI+ UL (SK-Mel-2 cells; 100 ng/mL): 0.30% | % AnnV+/PI+ UR (SK-Mel-2 cells; 1000 ng/mL): 2.02% | % AnnV+/PI− LR (SK-Mel-2 cells; 1000 ng/mL): 13.83% | % AnnV−/PI+ UL (SK-Mel-2 cells; 1000 ng/mL): 2.08% | % AnnV+/PI+ UR (TK-10 cells; 100 ng/mL): 0.57% | % AnnV+/PI− LR (TK-10 cells; 100 ng/mL): 1.00% | % AnnV−/PI+ UL (TK-10 cells; 100 ng/mL): 0.71% | % AnnV+/PI+ UR (TK-10 cells; 1000 ng/mL): 0.83% | % AnnV+/PI− LR (TK-10 cells; 1000 ng/mL): 0.56% | % AnnV−/PI+ UL (TK-10 cells; 1000 ng/mL): 0.86% | Clonogenic Assay with 1.15.1-AE IC50 (UACC-257): 0.825 µg/mL | IC50 (UACC-257): 5.5 nM | Clonogenic Assay with 1.15.1-AE IC50 (G361): 1.053 µg/mL | IC50 (G361): 6.5 nM | Clonogenic Assay with 1.15.1-AE IC50 (RPMI-7951): 0.972 µg/mL | IC50 (RPMI-7951): 6 nM | Clonogenic Assay with 1.15.1-AE IC50 (SK-Mel 2): 0.111 µg/mL | IC50 (SK-Mel 2): 0.75 nM | Clonogenic Assay with 1.15.1-AE IC50 (DEL (ALCL)): No effect | Clonogenic Assay with 1.15.1-AE IC50 [2]: 0.207 µg/mL | IC50 [2]: 1.4 nM | Clonogenic Assay with 1.15.1-AE IC50 [3]: No growth | Clonogenic Assay with 1.15.1-AE IC50 [4]: 0.34 µg/mL | IC50 [4]: 2.4 nM | Clonogenic Assay with 1.15.1-AE IC50 [5]: No growth | Clonogenic Assay with 1.15.1-AE IC50 [6]: No effect | Clonogenic Assay with 1.15.1-AE IC50 [7]: No effect | Clonogenic Assay with 1.15.1-AE IC50 [8]: 0.296 µg/mL | IC50 [8]: 2 nM | Clonogenic Assay with 1.15.1-AE IC50 (SUP-M2 (ALCL)): No growth | Clonogenic Assay with 1.15.1-AE IC50 [9]: No effect | Clonogenic Assay with 1.15.1-AE IC50 (SU-DHL-1 (ALCL)): No effect | Clonogenic Assay with 1.15.1-AE IC50 (Karpas 299 (ALCL)): Inconclusive
